Data as given in ChEMBL document CHEMBL2074240, “VX-710 (biricodar) increases drug retention and enhances chemosensitivity in resistant cells overexpressing P-glycoprotein, multidrug resistance protein, and breast cancer resistance protein” (Clin Cancer Res, 2004).

Target: ATP-dependent translocase ABCB1 (Homo sapiens, UniProt P08183)
Test: TP_TRANSPORTER: increase in mitoxantrone intracellular accumulation (Mitoxantrone: 3 uM, VX-710: 2.5 uM) in A2780/Dx5b cells
Format: functional, cell-based

ATP-dependent translocase ABCB1, sequence (P08183 whole entry): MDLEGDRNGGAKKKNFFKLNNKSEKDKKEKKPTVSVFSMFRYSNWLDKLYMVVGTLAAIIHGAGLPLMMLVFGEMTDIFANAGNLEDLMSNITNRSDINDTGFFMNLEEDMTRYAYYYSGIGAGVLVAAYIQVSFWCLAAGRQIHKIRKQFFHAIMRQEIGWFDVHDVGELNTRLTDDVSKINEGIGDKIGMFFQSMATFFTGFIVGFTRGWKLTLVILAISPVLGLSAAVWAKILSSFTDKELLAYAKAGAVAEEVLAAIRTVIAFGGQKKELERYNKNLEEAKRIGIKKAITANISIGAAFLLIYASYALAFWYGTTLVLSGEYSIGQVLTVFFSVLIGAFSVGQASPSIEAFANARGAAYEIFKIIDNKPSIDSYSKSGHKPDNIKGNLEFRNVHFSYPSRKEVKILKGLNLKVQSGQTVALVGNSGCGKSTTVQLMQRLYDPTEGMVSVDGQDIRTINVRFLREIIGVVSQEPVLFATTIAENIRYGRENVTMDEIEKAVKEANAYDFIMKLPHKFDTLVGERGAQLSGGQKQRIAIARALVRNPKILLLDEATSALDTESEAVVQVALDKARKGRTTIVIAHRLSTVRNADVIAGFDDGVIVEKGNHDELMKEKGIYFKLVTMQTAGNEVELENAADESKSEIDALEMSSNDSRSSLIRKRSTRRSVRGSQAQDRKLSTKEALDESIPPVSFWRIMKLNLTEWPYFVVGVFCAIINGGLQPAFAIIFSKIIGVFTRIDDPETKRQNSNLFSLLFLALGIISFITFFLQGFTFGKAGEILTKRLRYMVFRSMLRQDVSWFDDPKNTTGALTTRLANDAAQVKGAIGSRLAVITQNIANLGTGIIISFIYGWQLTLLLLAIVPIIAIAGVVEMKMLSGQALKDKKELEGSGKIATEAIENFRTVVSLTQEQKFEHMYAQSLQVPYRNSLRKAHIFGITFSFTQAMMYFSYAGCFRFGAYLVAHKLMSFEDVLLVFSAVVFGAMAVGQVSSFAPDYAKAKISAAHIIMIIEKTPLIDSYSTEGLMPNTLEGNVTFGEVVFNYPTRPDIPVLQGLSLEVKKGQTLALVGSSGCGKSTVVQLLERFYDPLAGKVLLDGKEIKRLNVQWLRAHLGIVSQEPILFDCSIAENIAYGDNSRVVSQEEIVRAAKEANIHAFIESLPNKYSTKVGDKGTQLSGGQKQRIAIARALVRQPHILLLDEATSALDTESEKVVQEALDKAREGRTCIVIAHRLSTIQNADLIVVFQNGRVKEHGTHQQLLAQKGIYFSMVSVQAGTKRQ

`COc1cc(C(=O)C(=O)N2CCCC[C@H]2C(=O)OC(CCCc2cccnc2)CCCc2cccnc2)cc(OC)c1OC` [BIRICODAR] was tested, and the Activity was “inhibitor [+]”.
